# Patent US4973679A, “Process for oligonucleo tide synthesis using phosphormidite intermediates” (University Patents, Inc., priority 1986, dated 1990)
# Test: Lewis acid (ZnBr2) hydrolysis rates of triarylmethyl groups attached to the 5'-hydroxyl of deoxynucleosides
# Assay type: physicochemical
# Settings: 0.08 M ZnBr2 in nitromethane; tlc, HCl vapors
# Description: These compounds are listed in Tables IV and V. The 5'-triarylmethyldeoxynucleosides were treated with protic and Lewis acids using carefully controlled conditions. […] The rates are more variable -with protic acids.
# The Lewis Acid Hydrolysis Rates of Triarylmethyl Groups
# ^1 Reaction conditions were 0.08 M ZnBr2 in nitromethane.
# Aliquots were removed from the reaction solution, quenched with ammonium
# acetate and analyzed visually after tlc and exposure to HCl vapors. Time
row,t1/2 in ZnBr2 [s],SMILES
1,20,COc1ccc(C(OC[C@H]2O[C@@H](n3cnc4c(=O)[nH]c(NC(=O)C(C)C)nc43)C[C@@H]2O)(c2ccccc2)c2ccc(OC)cc2)cc1 [R1 = R2 = c; R3 = a; G]
2,20,COc1ccc(C(OC[C@H]2O[C@@H](n3cnc4c(NC(=O)c5ccccc5)ncnc43)C[C@@H]2O)(c2ccccc2)c2ccc(OC)cc2)cc1 [R1 = R2 = c; R3 = a; A]
3,30,COc1ccccc1C(OC[C@H]1O[C@@H](n2ccc(NC(=O)c3ccccc3)nc2=O)C[C@@H]1O)(c1ccccc1OC)c1cccc2ccccc12 [R1 = R2 = b; R3 = n; C]
4,60,COc1ccc(C(OC[C@H]2O[C@@H](n3cc(C)c(=O)[nH]c3=O)C[C@@H]2O)(c2ccccc2)c2ccc(OC)cc2)cc1 [R1 = R2 = c; R3 = a; T]
5,30,COc1ccccc1C(OC[C@H]1O[C@@H](n2cc(C)c(=O)[nH]c2=O)C[C@@H]1O)(c1ccccc1OC)c1cccc2ccccc12 [R1 = R2 = b; R3 = n; T]
6,20,COc1ccccc1C(OC[C@H]1O[C@@H](n2cnc3c(=O)[nH]c(NC(=O)C(C)C)nc32)C[C@@H]1O)(c1ccccc1)c1ccccc1OC [R1 = R2 = b; R3 = a; G]
7,60,COc1ccc(C(OC[C@H]2O[C@@H](n3cc(C)c(=O)[nH]c3=O)C[C@@H]2O)(c2ccccc2)c2cccc3ccccc23)cc1 (stereo partly shown) [R1 = n; R2 = c; R3 = a; T]
8,45,Cc1ccc(C(OC[C@H]2O[C@@H](n3cnc4c(NC(=O)c5ccccc5)ncnc43)C[C@@H]2O)(c2ccccc2)c2ccccc2)cc1 [R1 = h; R2 = R3 = a; A]
9,45,COc1ccc(C(OC[C@H]2O[C@@H](n3ccc(NC(=O)c4ccccc4)nc3=O)C[C@@H]2O)(c2ccccc2)c2ccc(OC)cc2)cc1 [R1 = R2 = c; R3 = a; C]
10,60,Cc1cn([C@H]2C[C@H](O)[C@@H](COC(c3ccccc3)(c3ccc(F)cc3)c3cccc4ccccc34)O2)c(=O)[nH]c1=O (stereo partly shown) [R1 = n; R2 = e; R3 = a; T]
